In this assay the target is T1, full-length SARM1 (FL-SARM1) (Homo sapiens, UniProt Q6SZW1).
T1 sequence (Q6SZW1 28-724): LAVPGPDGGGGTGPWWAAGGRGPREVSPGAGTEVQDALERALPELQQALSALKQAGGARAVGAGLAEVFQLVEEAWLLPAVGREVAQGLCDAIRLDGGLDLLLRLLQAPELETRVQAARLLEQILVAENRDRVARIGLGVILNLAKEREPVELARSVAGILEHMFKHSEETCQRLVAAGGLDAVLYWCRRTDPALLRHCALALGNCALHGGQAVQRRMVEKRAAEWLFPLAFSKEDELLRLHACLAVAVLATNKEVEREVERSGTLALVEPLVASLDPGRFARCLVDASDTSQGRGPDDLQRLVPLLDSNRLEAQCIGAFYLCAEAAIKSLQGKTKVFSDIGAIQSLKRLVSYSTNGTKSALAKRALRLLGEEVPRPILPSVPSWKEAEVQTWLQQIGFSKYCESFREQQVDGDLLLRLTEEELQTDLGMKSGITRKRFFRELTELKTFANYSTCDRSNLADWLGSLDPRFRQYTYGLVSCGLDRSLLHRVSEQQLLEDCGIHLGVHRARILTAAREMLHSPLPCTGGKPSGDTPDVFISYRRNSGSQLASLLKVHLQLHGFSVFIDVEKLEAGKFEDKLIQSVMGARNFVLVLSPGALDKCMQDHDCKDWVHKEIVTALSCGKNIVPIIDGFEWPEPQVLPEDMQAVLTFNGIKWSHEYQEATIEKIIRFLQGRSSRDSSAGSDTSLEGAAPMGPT
The assay is described as follows: FL-SARM1 cellular lysate assay (NAD/NADH-Glo readout of remaining NAD+). As to conditions: SARM1 cellular lysate from transfected HEK293T cells, NAD+ and NMN, 11 point curve; for IC50: Activity (μM); for pIC50: Activity.

For 26 compounds, IC50 results are on record in US20250361234A1 (NICO THERAPEUTICS, INC., priority 2022, published 2025).

Each structure is given as a SMILES string. pIC50: −log10 of the molar value.

The term IC50 denotes the concentration that inhibits the measured activity by half. One may read the pIC50 as the IC50 on a negative log10 scale, so that one unit is a factor of ten. High values mean a small IC50, low ones a large IC50. Regarding `Cc1ccc(NC(=O)[C@H]2C[C@@H](C3CC3(F)F)C2)cc1-c1cccnc1` (stereo partly drawn) [Example 100, cis-3-(2,2-difluorocyclopropyl)-N-(4-methyl-3-pyridin-3-ylphenyl)cyclobutane-1-carboxamide], the IC50 amounted to 1.5 µM and the pIC50 is 5.00 to 6.00.

Compound `C[C@@H]1CC2C[C@@H](C1)N2C(=O)Nc1ccc(C#N)c(-c2cncc(F)c2)c1` (single isomer, unassigned) [Example 77, trans-N-(4-cyano-3-(5-fluoropyridin-3-yl)phenyl)-3-methyl-6-azabicyclo[3.1.1]heptane-6-carboxamide] showed a concentration for half-maximal inhibition (IC50) of 0.4 µM and a negative-log IC50 (pIC50) of 6.00 to 10.00.

With `Cc1ccc(NC(=O)N2C3CCCC2C3)cc1-c1cccnc1C` [Example 69, N-[4-methyl-3-(2-methylpyridin-3-yl)phenyl]-6-azabicyclo[3.1.1]heptane-6-carboxamide], the IC50 came to 1.6 µM and the negative logarithm of the IC50 (pIC50) was 5.00 to 6.00.

`Cc1ccc(NC(=O)[C@H]2C[C@@H](C3CC3)C2)cc1-c1cncc(F)c1` [Example 109, cis-3-cyclopropyl-N-[3-(5-fluoropyridin-3-yl)-4-methylphenyl]cyclobutane-1-carboxamide] showed an IC50 of 0.5 µM and a negative-log IC50 (pIC50) of 6.00 to 10.00.

In turn, `Cc1ccc(NC(=O)N2C3C[C@H](OC(F)F)C[C@@H]2C3)cc1-c1cncc(F)c1` [Example 29, cis-3-(difluoromethoxy)-N-(3-(5-fluoropyridin-3-yl)-4-methylphenyl)-6-azabicyclo[3.1.1]heptane-6-carboxamide] gave a half-maximal inhibitory concentration (IC50) of 0.1 µM and a negative-log IC50 (pIC50) of 6.00 to 10.00.

Consider `C[C@@H]1CC2C[C@@H](C1)N2C(=O)Nc1ccc(Cl)c(-c2cncc(F)c2)c1` (single isomer, unassigned) [Example 79, trans-N-(4-chloro-3-(5-fluoropyridin-3-yl)phenyl)-3-methyl-6-azabicyclo[3.1.1]heptane-6-carboxamide], for which the IC50 came to 0.1 µM and the pIC50 was 6.00 to 10.00.

Compound `Cc1ccc(NC(=O)[C@H]2C[C@@](C#N)(C3CC3)C2)cc1-c1cncc(F)c1` [Example 106, trans-3-cyano-3-cyclopropyl-N-[3-(5-fluoropyridin-3-yl)-4-methylphenyl]cyclobutane-1-carboxamide] showed an IC50 of 0.6 µM and a pIC50 of 6.00 to 10.00.

Turning to `Cc1cc(F)c(NC(=O)N2C3C[C@H](C)C[C@@H]2C3)cc1-c1cncc(F)c1` [Example 41, cis-N-(2-fluoro-5-(5-fluoropyridin-3-yl)-4-methylphenyl)-3-methyl-6-azabicyclo[3.1.1]heptane-6-carboxamide], half-maximal inhibition (IC50) was put at 0.04 µM and the negative-log IC50 (pIC50) is 6.00 to 10.00.

`Cc1ccc(NC(=O)N2C3CC2CC2(CC2)C3)cc1-c1cncc(F)c1` [Example 54, N-(3-(5-fluoropyridin-3-yl)-4-methylphenyl)-6-azaspiro[bicyclo[3.1.1]heptane-3,1′-cyclopropane]-6-carboxamide] gave an IC50 of 0.06 µM and a negative-log IC50 (pIC50) of 6.00 to 10.00.

Compound `Cc1ccc(NC(=O)N2C3CCCC2C3)cc1-c1cncc(F)c1` [Example 87, N-(3-(5-fluoropyridin-3-yl)-4-methylphenyl)-6-azabicyclo[3.1.1]heptane-6-carboxamide] had an IC50 of 0.1 µM and a negative-log IC50 (pIC50) of 6.00 to 10.00.

`Cc1ncc(-c2cc(NC(=O)[C@@H]3CC3(F)F)ccc2C)cn1` [Example 111, (1S)-2,2-difluoro-N-[4-methyl-3-(2-methylpyrimidin-5-yl)phenyl]cyclopropane-1-carboxamide] showed a half-inhibitory concentration (IC50) of 20.4 µM and a negative-log IC50 (pIC50) below 5.00.

Turning to `Cc1ccc(NC(=O)N2C3CCCC2C3)cc1-c1cncc(OCF)c1` [Example 45, N-(3-(5-(fluoromethoxy)pyridin-3-yl)-4-methylphenyl)-6-azabicyclo[3.1.1]heptane-6-carboxamide], the IC50 came to 0.06 µM and the negative logarithm of the IC50 (pIC50) is 6.00 to 10.00.

For the compound `Cc1ccc(NC(=O)N2CC3CCC2C3)cc1-c1cncc(F)c1` (stereo not shown) [Example 18, N-(3-(5-fluoropyridin-3-yl)-4-methylphenyl)-2-azabicyclo[2.2.1]heptane-2-carboxamide], the 50% inhibitory concentration (IC50) was 1 µM and the pIC50 is 5.00 to 6.00.

Take `C[C@@H]1CC2C[C@@H](C1)N2C(=O)Nc1ccc(F)c(-c2cncc(F)c2)c1` (single isomer, unassigned) [Example 57, trans-N-(4-fluoro-3-(5-fluoropyridin-3-yl)phenyl)-3-methyl-6-azabicyclo[3.1.1]heptane-6-carboxamide]: the IC50 worked out at 0.3 µM and the pIC50 was 6.00 to 10.00.

Compound `Cc1nnc([C@]23C[C@H](C)C[C@H](C2)N3C(=O)Nc2cc(-c3cncc(F)c3)c(Cl)cc2F)o1` (single isomer, unassigned) [Example 132, cis-N-(4-chloro-2-fluoro-5-(5-fluoropyridin-3-yl)phenyl)-3-methyl-1-(5-methyl-1,3,4-oxadiazol-2-yl)-6-azabicyclo[3.1.1]heptane-6-carboxamide] had an IC50 of 0.05 µM and a pIC50 of 6.00 to 10.00.

`O=C(Nc1ccc(Cl)c(-c2cncc(F)c2)c1)N1C2C[C@H](OC(F)F)C[C@H]1C2` [Example 55, trans-N-(4-chloro-3-(5-fluoropyridin-3-yl)phenyl)-3-(difluoromethoxy)-6-azabicyclo[3.1.1]heptane-6-carboxamide] gave a half-inhibitory concentration (IC50) of 0.3 µM and a pIC50 of 6.00 to 10.00.

Consider `C[C@@H]1CC2C[C@H](C1)N2C(=O)Nc1ccc(C2CC2)c(-c2cncc(F)c2)c1` (single isomer, unassigned) [Example 51, cis-N-(4-cyclopropyl-3-(5-fluoropyridin-3-yl)phenyl)-3-methyl-6-azabicyclo[3.1.1]heptane-6-carboxamide], for which the IC50 is 0.2 µM and the pIC50 was 6.00 to 10.00.

The compound `Cc1nnc([C@@]23C[C@@H](C)C[C@@H](C2)N3C(=O)Nc2ccc(Cl)c(-c3cncc(F)c3)c2)o1` (single isomer, unassigned) [Example 134, cis-N-[4-chloro-3-(5-fluoro-3-pyridinyl)phenyl]-3-methyl-1-(5-methyl-1,3,4-oxadiazol-2-yl)-6-azabicyclo[3.1.1]heptane-6-carboxamide] gave an IC50 of 0.02 µM and a negative-log IC50 (pIC50) of 6.00 to 10.00.

Regarding `Cc1ccc(NC(=O)N2C3CCC2(C)CC3)cc1-c1cncc(F)c1` [Example 5, N-(3-(5-fluoropyridin-3-yl)-4-methylphenyl)-1-methyl-7-azabicyclo[2.2.1]heptane-7-carboxamide], the concentration for half-maximal inhibition (IC50) is 0.3 µM and the negative logarithm of the IC50 (pIC50) was 6.00 to 10.00.

Take `Cc1ccc(NC(=O)N2C3CCCC2C3)cc1-c1cncc(C#N)c1` [Example 72, N-(3-(5-cyanopyridin-3-yl)-4-methylphenyl)-6-azabicyclo[3.1.1]heptane-6-carboxamide]: the concentration for half-maximal inhibition (IC50) came out at 0.1 µM and the negative logarithm of the IC50 (pIC50) was 6.00 to 10.00.

The compound `C[C@H]1CC2C[C@@H](C1)N2C(=O)Nc1ccc(C#N)c(-c2cncc(F)c2)c1` (single isomer, unassigned) [Example 78, cis-N-(4-cyano-3-(5-fluoropyridin-3-yl)phenyl)-3-methyl-6-azabicyclo[3.1.1]heptane-6-carboxamide] had an IC50 of 0.1 µM and a negative-log IC50 (pIC50) of 6.00 to 10.00.

In the case of `Cc1ccc(NC(=O)C2CCCN2c2ncccn2)cc1-c1cncc(F)c1` (racemic) [Example 104, N-[3-(5-fluoropyridin-3-yl)-4-methylphenyl]-1-pyrimidin-2-ylpyrrolidine-2-carboxamide], the IC50 amounted to 26.4 µM and the pIC50 is below 5.00.

As to `Cc1nnc([C@]23C[C@H](C)C[C@H](C2)N3C(=O)Nc2cc(-c3cncc(F)c3)c(Cl)cc2F)o1` (single isomer, unassigned) [Example 133, cis-N-(4-chloro-2-fluoro-5-(5-fluoropyridin-3-yl)phenyl)-3-methyl-1-(5-methyl-1,3,4-oxadiazol-2-yl)-6-azabicyclo[3.1.1]heptane-6-carboxamide], 38 µM corresponded to half-maximal inhibition (IC50) and the pIC50 was below 5.00.

For `Cc1ccc(NC(=O)N2C3CCCC2C3)cc1-c1cnnnc1` [Example 130], the IC50 amounted to 15.5 µM and the pIC50 was below 5.00.

For the compound `Cc1ccncc1-c1cc(NC(=O)N2C3CCCC2C3)ccc1C` [Example 91, N-(4-methyl-3-(4-methylpyridin-3-yl)phenyl)-6-azabicyclo[3.1.1]heptane-6-carboxamide], the half-maximal inhibitory concentration (IC50) was 0.4 µM and the pIC50 was 6.00 to 10.00.

As for `CCO[C@@H]1C[C@@H]2C[C@H](C1)N2C(=O)Nc1ccc(C)c(-c2cncc(F)c2)c1` [Example 2, cis-3-ethoxy-N-(3-(5-fluoropyridin-3-yl)-4-methylphenyl)-6-azabicyclo[3.1.1]heptane-6-carboxamide], the midpoint of inhibition, the IC50, lay at 3.3 µM and the pIC50 is 5.00 to 6.00.
